# Experimental data: ChEMBL document CHEMBL3603789, “N-Lipidated Peptide Dimers: Effective Antibacterial Agents against Gram-Negative Pathogens through Lipopolysaccharide Permeabilization” (J Med Chem, 2015)
# Active and inactive are the calls of the source. The rule behind the calls is not given here. Bridge positions count the residues as written; N and C are the ends. Peptide text beside a SMILES is read from it. I, II: the chains in the order shown. * marks the point of attachment. Octanoyl = CCCCCCCC(=O)*
# Legend:
# Pseudomonas aeruginosa [1] = test: Antibacterial activity against Pseudomonas aeruginosa ATCC 9027 after 24 hrs by broth microdilution method; format: functional; conditions: ATCC 9027, 24 h
# Klebsiella pneumoniae [2] = test: Antibacterial activity against Klebsiella pneumoniae DS07955 after 24 hrs by broth microdilution method; format: functional; conditions: DS07955, 24 h
# Lipopolysaccharide (LPS) [3] = test: Displacement of dansylcadaverine from Escherichia coli 0111:B4 LPS at 15 to 30 uM after 5 mins by high-throughput fluorescence displacement assay
# [4] = Toxicity in human corneal fibroblasts assessed as cell viability at > 2000 uM after 4 hrs by LDH assay; format: cell-based; conditions: fibroblast
# Klebsiella pneumoniae [5] = test: Antibacterial activity against Klebsiella pneumoniae DB55301 after 24 hrs by broth microdilution method; format: functional; conditions: DB55301, 24 h
# Escherichia coli [6] = test: Antibacterial activity against Escherichia coli ATCC 25922 after 24 hrs by checkerboard assay in presence of erythromycin; format: functional
# Escherichia coli [7] = test: Antibacterial activity against Escherichia coli ATCC 25922 after 24 hrs by broth microdilution method; format: functional; conditions: ATCC 25922, 24 h
# [8] = Toxicity in New Zealand white rabbit erythrocytes assessed as hemolytic activity after 60 mins; format: cell-based, Oryctolagus cuniculus; conditions: erythrocyte, 1 h
# Escherichia coli [9] = test: Antibacterial activity against Escherichia coli ATCC 25922 after 24 hrs by checkerboard assay in presence of streptomycin; format: functional
# [10] = Induction of calcein leakage from DOPE/DOPG artificial membrane at 1:32 ratio of compound to lipid by fluorescence assay; format: physicochemical
# Mus musculus [11] = test: Corneal toxicity in mouse at 6.25 mg/kg, iv measured 24 hrs after last dose; format: organism-based; conditions: in vivo
# Pseudomonas aeruginosa [12] = test: Antibacterial activity against Pseudomonas aeruginosa DM23155 assessed as log reduction of viable count MIC up to 24 hrs by time-kill assay; format: functional, organism-based
# Pseudomonas aeruginosa [13] = test: Antibacterial activity against Pseudomonas aeruginosa DM23257 after 24 hrs by broth microdilution method; format: functional; conditions: DM23257, 24 h
# Pseudomonas aeruginosa [14] = test: Antibacterial activity against Pseudomonas aeruginosa DR4877 after 24 hrs by broth microdilution method; format: functional; conditions: DR4877, 24 h
# Pseudomonas aeruginosa [15] = test: Antibacterial activity against Pseudomonas aeruginosa DM23155 after 24 hrs by checkerboard assay in presence of kanamycin; format: functional
# Pseudomonas aeruginosa [16] = test: Antibacterial activity against Pseudomonas aeruginosa DM23155 after 24 hrs by broth microdilution method; format: functional; conditions: DM23155, 24 h
# Pseudomonas aeruginosa [17] = test: Antibacterial activity against Pseudomonas aeruginosa DR18531 after 24 hrs by broth microdilution method; format: functional; conditions: DR18531, 24 h
# Pseudomonas aeruginosa [18] = test: Antibacterial activity against Pseudomonas aeruginosa DM23155 after 24 hrs by checkerboard assay in presence of nalidixic acid; format: functional
# Klebsiella pneumoniae [19] = test: Antibacterial activity against Klebsiella pneumoniae DM4299 after 24 hrs by broth microdilution method; format: functional; conditions: DM4299, 24 h
# Pseudomonas aeruginosa [20] = test: Antibacterial activity against Pseudomonas aeruginosa ATCC 27853 after 24 hrs by broth microdilution method; format: functional; conditions: ATCC 27853, 24 h
# Pseudomonas aeruginosa [21] = test: Induction of cytoplasmic membrane depolarization in Pseudomonas aeruginosa DM23155 at 4 times MIC after 1 hr by fluorescence assay; format: functional, organism-based
# Pseudomonas aeruginosa [22] = test: Antibacterial activity against Pseudomonas aeruginosa DM23155 assessed as log reduction of viable count at 2 times MIC after 30 mins by time-kill assay relative to control; format: functional
# Klebsiella pneumoniae [23] = test: Antibacterial activity against Klebsiella pneumoniae DS16260 after 24 hrs by broth microdilution method; format: functional; conditions: DS16260, 24 h
# Pseudomonas aeruginosa [24] = test: Antibacterial activity against Pseudomonas aeruginosa DM23155 assessed as log reduction of viable count at 2 times MIC after 24 hrs by time-kill assay; format: functional, organism-based
# Escherichia coli [25] = test: Antibacterial activity against Escherichia coli ATCC 25922 after 24 hrs by checkerboard assay in presence of gentamicin; format: functional
# Escherichia coli [26] = test: Antibacterial activity against Escherichia coli ATCC 25922 after 24 hrs by checkerboard assay in presence of nalidixic acid; format: functional
# Lipopolysaccharide (LPS) [27] = test: Induction of Escherichia coli 0111:B4 LPS neutralization using p-nitroaniline assessed as concentration required to neutralize 50% after 1 hr by limulus amebocyte lysate assay
# Pseudomonas aeruginosa [28] = test: Antibacterial activity against Pseudomonas aeruginosa DR5790 after 24 hrs by broth microdilution method; format: functional; conditions: DR5790, 24 h
# Escherichia coli [29] = test: Antibacterial activity against Escherichia coli DM17528 after 24 hrs by broth microdilution method; format: functional; conditions: DM17528, 24 h
# Pseudomonas aeruginosa [30] = test: Antibacterial activity against Pseudomonas aeruginosa DM4150R after 24 hrs by broth microdilution method; format: functional
# [31] = Induction of calcein leakage from DOPC artificial membrane at 1:32 ratio of compound to lipid by fluorescence assay; format: physicochemical
# Pseudomonas aeruginosa [32] = test: Induction of cytoplasmic membrane disruption in Pseudomonas aeruginosa DM23155 assessed as membrane integrity at 1 to 2 times MIC after 1 hr by fluorescence assay; format: functional
# Pseudomonas aeruginosa [33] = test: Antibacterial activity against Pseudomonas aeruginosa DM23155 after 24 hrs by checkerboard assay in presence of gentamicin; format: functional
# Escherichia coli [34] = test: Antibacterial activity against Escherichia coli ATCC 25922 after 24 hrs by checkerboard assay in presence of kanamycin; format: functional
# Mus musculus [35] = test: Corneal toxicity in mouse at 1 to 3 mg/ml applied topically 5 times per day measured 24 hrs after last dose; format: organism-based; conditions: in vivo, topical_or_ocular
# Pseudomonas aeruginosa [36] = test: Antibacterial activity against Pseudomonas aeruginosa DU14476 after 24 hrs by broth microdilution method; format: functional; conditions: DU14476, 24 h
# Escherichia coli [37] = test: Antibacterial activity against Escherichia coli DS17232 after 24 hrs by broth microdilution method; format: functional; conditions: DS17232, 24 h
# Klebsiella pneumoniae [38] = test: Antibacterial activity against Klebsiella pneumoniae DU31158 after 24 hrs by broth microdilution method; format: functional; conditions: DU31158, 24 h
# Pseudomonas aeruginosa [39] = test: Antibacterial activity against Pseudomonas aeruginosa DM23155 after 24 hrs by checkerboard assay in presence of erythromycin; format: functional
# Pseudomonas aeruginosa [40] = test: Antibacterial activity against Pseudomonas aeruginosa DM23376 after 24 hrs by broth microdilution method; format: functional; conditions: DM23376, 24 h
# [41] = Toxicity in human corneal fibroblasts assessed as cell viability at > 2000 uM after 4 hrs by ATP luminescent assay; format: cell-based; conditions: fibroblast
# Pseudomonas aeruginosa [42] = test: Antibacterial activity against Pseudomonas aeruginosa DM23155 after 24 hrs by checkerboard assay in presence of streptomycin; format: functional
# Mus musculus [43] = test: Corneal toxicity in mouse at 100 mg/kg, ip measured 24 hrs after last dose; format: organism-based; conditions: in vivo
smiles,measurement,setting,value
CCCCCCCC(=O)N[C@@H](CCCNC(=N)N)C(=O)NCC(=O)N[C@@H](CCCNC(=N)N)C(=O)N[C@@H](CCCCN)C(=O)N[C@H](C(=O)N[C@H](C(=O)N[C@@H](CCCNC(=N)N)C(=O)N[C@@H](CCCNC(=N)N)C(=O)NCCCC[C@H](NC(=O)[C@H](CCCNC(=N)N)NC(=O)[C@H](CCCNC(=N)N)NC(=O)[C@@H](NC(=O)[C@@H](NC(=O)[C@H](CCCCN)NC(=O)[C@H](CCCNC(=N)N)NC(=O)CNC(=O)[C@H](CCCNC(=N)N)NC(=O)CCCCCCC)C(C)C)C(C)C)C(=O)N[C@@H](CCCCN)C(=O)O)C(C)C)C(C)C (I: Octanoyl-RGRKVVRRKK-OH / II: Octanoyl-RGRKVVRR; amide I:9-II:C),MIC,Pseudomonas aeruginosa [1],3 µM
same,MIC,Klebsiella pneumoniae [2],10 µM
same,Activity,Lipopolysaccharide (LPS) [3],121%
same,Activity,[4],> 2000 µM
same,MIC,Klebsiella pneumoniae [5],10 µM
same,fractional inhibitory concentration index (FICI),Escherichia coli [6],0.56
same,MIC,Escherichia coli [7],6 µM
same,HC10,[8],> 10000 µg/mL
same,fractional inhibitory concentration index (FICI),Escherichia coli [9],0.31
same,Activity,[10],Active
same,Activity,Mus musculus [11],Non-toxic
same,Activity,Pseudomonas aeruginosa [12],Dose-dependent effect
same,MIC,Pseudomonas aeruginosa [13],3 µM
same,MIC,Pseudomonas aeruginosa [14],3 µM
same,fractional inhibitory concentration index (FICI),Pseudomonas aeruginosa [15],0.56
same,MIC,Pseudomonas aeruginosa [16],3 µM
same,MIC,Pseudomonas aeruginosa [17],1.5 µM
same,fractional inhibitory concentration index (FICI),Pseudomonas aeruginosa [18],0.5
same,MIC,Klebsiella pneumoniae [19],3 µM
same,MIC,Pseudomonas aeruginosa [20],3 µM
same,Activity,Pseudomonas aeruginosa [21],Active
same,FC,Pseudomonas aeruginosa [22],3
same,MIC,Klebsiella pneumoniae [23],3 µM
same,Activity,Pseudomonas aeruginosa [24],Active
same,fractional inhibitory concentration index (FICI),Escherichia coli [25],0.31
same,fractional inhibitory concentration index (FICI),Escherichia coli [26],0.5
same,EC50,Lipopolysaccharide (LPS) [27],73.4 µM
same,MIC,Pseudomonas aeruginosa [28],3 µM
same,MIC,Escherichia coli [29],10 µM
same,MIC,Pseudomonas aeruginosa [30],3 µM
same,Activity,[31],Active
same,Activity,Pseudomonas aeruginosa [32],>80%
same,fractional inhibitory concentration index (FICI),Pseudomonas aeruginosa [33],0.38
same,fractional inhibitory concentration index (FICI),Escherichia coli [34],0.31
same,Activity,Mus musculus [35],Non-toxic
same,MIC,Pseudomonas aeruginosa [36],3 µM
same,MIC,Escherichia coli [37],10 µM
same,MIC,Klebsiella pneumoniae [38],10 µM
same,fractional inhibitory concentration index (FICI),Pseudomonas aeruginosa [39],0.56
same,MIC,Pseudomonas aeruginosa [40],3 µM
same,Activity,[41],> 2000 µM
same,fractional inhibitory concentration index (FICI),Pseudomonas aeruginosa [42],0.56
same,Activity,Mus musculus [43],Non-toxic
